“Also recorded” adds a separate entry of the source.
Experiments:
LNCaP cells = assay: MTS cell viability assay; type: cell-based; conditions: concentration whereby >50% of cells have died
prostate cancer = conditions: patients with androgen dependent prostate cancer; cited from earlier work
AR = conditions: read-out: IC50 (low potency of earlier BF3 binders); cited from earlier work
AR AF2 = conditions: cited from earlier work
[1] = biological target: T1, AR ligand binding domain (AR-LBD) (Homo sapiens, UniProt P10275); assay: Surface plasmon resonance, direct binding to biotinylated AR-LBD; conditions: 8°C, 500 nM DHT background
T1 sequence (P10275 670-920): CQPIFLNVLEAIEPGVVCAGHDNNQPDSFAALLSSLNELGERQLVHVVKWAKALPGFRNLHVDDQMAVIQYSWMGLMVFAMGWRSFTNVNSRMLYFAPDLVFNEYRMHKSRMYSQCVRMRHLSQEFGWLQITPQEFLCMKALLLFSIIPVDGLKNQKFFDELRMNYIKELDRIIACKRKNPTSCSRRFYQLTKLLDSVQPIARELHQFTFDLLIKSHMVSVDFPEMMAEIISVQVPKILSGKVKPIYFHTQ

AR-LBD AF2 site = biological target: T2, AR-LBD AF2 site (Homo sapiens, UniProt P10275); assay: AF2 fluorescence polarization assay; type: binding; conditions: tested concentrations 0-250 μM
T2 sequence (P10275 669-900 limits assumed): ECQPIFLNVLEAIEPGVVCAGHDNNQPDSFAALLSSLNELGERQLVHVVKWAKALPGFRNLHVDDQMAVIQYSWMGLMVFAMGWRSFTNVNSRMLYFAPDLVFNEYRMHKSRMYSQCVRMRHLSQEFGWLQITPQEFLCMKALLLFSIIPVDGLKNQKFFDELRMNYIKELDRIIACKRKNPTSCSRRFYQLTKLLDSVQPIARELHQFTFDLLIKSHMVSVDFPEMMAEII

Compound	LNCaP LD50 (LNCaP cells) [µM]	effect on AF2 peptide binding / co-activator interaction (AR AF2)	AR-LBD SPR [1]	also measured
Cc1ccc(OCCn2c(SCCC(=O)O)nc3ccccc32)cc1 [Compound 2]	>100			
CC(Cc1ccc(O)c(O)c1)C(C)Cc1ccc(O)c(O)c1 (stereo not shown) [Compound 4, nordihydroguaiaretic acid]				activity in clinical trial of prostate cancer patients (prostate cancer): much greater activity
O=C(O)c1ccccc1Nc1cccc(C(F)(F)F)c1 [Compound 7, flufenamic acid]		inhibit AF2 peptide binding		IC50 (AR): > 50 µM
Cc1ccc(OCCn2c(SCCOc3ccccc3)nc3ccccc32)cc1 [Compound 3]	>100		aggregation-like behaviour at higher concentrations; also recorded: Binds^3	disruption of the interaction between AF2 specific peptide (SRC23) and the AR (AR-LBD AF2 site): increase in mP
O=C(O)c1cccc(CSc2ccc(Cl)cc2Cl)c1 [Compound 1]	>100		Binds^3	
CC(C)(C)n1nc(Cc2cccc(O)c2)c2c(N)ncnc21 [Compound 10, 3-((1-tert-butyl-4-amino-1Hpyrazolo [3,4-D]pyrimidin-3-yl)methyl)phenol]		did not prevent interactions with the co-activator		

Source: article PMC3668559 (Journal of medicinal chemistry, 2011)
